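Grown in 96-well plates, cells were treated for 48 hours with each compound at five concentrations. Insufficient inhibition: endpoint recorded as highest concentration tested. TGI: concentration producing complete growth inhibition.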
How the values were obtained:
Assay in all cases: NCI-60 cell line screen, 48 h
MDA-MB-231 breast = test system: MDA-MB-231 breast
A498 renal = test system: A498 renal
LOX IMVI melanoma = test system: LOX IMVI melanoma
U251 CNS = test system: U251 CNS
NCI-H460 lung = test system: NCI-H460 lung
UACC-257 melanoma = test system: UACC-257 melanoma
PC-3 prostate = test system: PC-3 prostate
COLO 205 colon = test system: COLO 205 colon
SK-MEL-5 melanoma = test system: SK-MEL-5 melanoma
OVCAR-5 ovarian = test system: OVCAR-5 ovarian
HT29 colon = test system: HT29 colon
NCI-H23 lung = test system: NCI-H23 lung
UO-31 renal = test system: UO-31 renal
HL-60(TB) leukemia = test system: HL-60(TB) leukemia
SK-MEL-28 melanoma = test system: SK-MEL-28 melanoma
A549 NSCLC = test system: A549 NSCLC
SK-OV-3 ovarian = test system: SK-OV-3 ovarian
HOP-62 NSCLC = test system: HOP-62 NSCLC
DU-145 prostate = test system: DU-145 prostate
SK-MEL-2 melanoma = test system: SK-MEL-2 melanoma
MCF7 breast = test system: MCF7 breast
SF-539 CNS = test system: SF-539 CNS
MALME-3M melanoma = test system: MALME-3M melanoma
T-47D breast = test system: T-47D breast
786-0 renal = test system: 786-0 renal
HS 578T breast = test system: HS 578T breast
SW-620 colon = test system: SW-620 colon
NCI-H226 lung = test system: NCI-H226 lung
SN12C renal = test system: SN12C renal
UACC-62 melanoma = test system: UACC-62 melanoma
IGROV1 ovarian = test system: IGROV1 ovarian
SF-268 CNS = test system: SF-268 CNS
HCT-15 colon = test system: HCT-15 colon
M14 melanoma = test system: M14 melanoma
HCC-2998 colon = test system: HCC-2998 colon
MOLT-4 leukemia = test system: MOLT-4 leukemia
HOP-92 NSCLC = test system: HOP-92 NSCLC
TK-10 renal = test system: TK-10 renal
K-562 leukemia = test system: K-562 leukemia
SF-295 CNS = test system: SF-295 CNS
CAKI-1 renal = test system: CAKI-1 renal
OVCAR-3 ovarian = test system: OVCAR-3 ovarian
SR leukemia = test system: SR leukemia
NCI-H522 lung = test system: NCI-H522 lung
ACHN renal = test system: ACHN renal
BT-549 breast = test system: BT-549 breast
RXF 393 renal = test system: RXF 393 renal
HCT-116 colon = test system: HCT-116 colon
RPMI-8226 leukemia = test system: RPMI-8226 leukemia
OVCAR-4 ovarian = test system: OVCAR-4 ovarian
KM12 colon = test system: KM12 colon
SNB-19 CNS = test system: SNB-19 CNS
NCI/ADR-RES ovarian = test system: NCI/ADR-RES ovarian
CCRF-CEM leukemia = test system: CCRF-CEM leukemia
SNB-75 CNS = test system: SNB-75 CNS
MDA-N = test system: MDA-N
EKVX NSCLC = test system: EKVX NSCLC
OVCAR-8 ovarian = test system: OVCAR-8 ovarian
MDA-MB-435 = test system: MDA-MB-435

Measured: TGI

Cc1ccc2nc3n(c2c1)C(c1c(F)cccc1F)SC3 (centres undefined)
not listed: EKVX NSCLC | OVCAR-8 ovarian | MDA-MB-435
> 100 µM: all other assays above

COc1ccc2c(c1)O[C@@H]1[C@@H](OC3OC(CO)C(O)C(O)C3O)Oc3cc(OC)c(OC)cc3[C@]1(O)C2=O (some centres undefined)
not listed: MCF7 breast
> 100 µM: all other assays above
